In ChEMBL document CHEMBL5244223, “l,8-Naphthalimide based DNA intercalators and anticancer agents. A systematic review from 2007 to 2017” (Eur J Med Chem, 2018):

Key:
Clupea harengus = experiment: Binding affinity to Atlantic herring DNA assessed as binding constant by fluorescence based EtBr-UV absorption spectral analysis
BGC-823 = experiment: Antiproliferative activity against human BGC-823 cells assessed as inhibition of cell proliferation incubated for 24 hrs by MTT assay; type: functional, cell-based; conditions: BGC-823, 24 h
L02 = experiment: Antiproliferative activity against human HL7702 cells assessed as inhibition of cell proliferation incubated for 24 hrs by MTT assay; type: functional, cell-based; conditions: L02, 24 h
MCF7 [1] = experiment: Antiproliferative activity against human MCF7 cells assessed as inhibition of cell proliferation incubated for 24 hrs by MTT assay; type: functional, cell-based; conditions: MCF7, 24 h
HCT-15 = experiment: Cytotoxicity against human HCT-15 cells assessed as inhibition of cell growth incubated for 24 hrs by sulforhodamine B assay; type: functional, cell-based; conditions: HCT-15, 24 h
HCT-116 [2] = experiment: Cytotoxicity against human HCT-116 cells assessed as inhibition of cell growth incubated for 72 hrs by MTT assay; type: functional, cell-based; conditions: HCT-116, 72 h
HepG2 = experiment: Cytotoxicity against human HepG2 cells assessed as inhibition of cell growth incubated for 48 hrs by MTT assay; type: functional, cell-based; conditions: HepG2, 48 h
HCT-116 [3] = experiment: Cytotoxicity against human HCT-116 cells assessed as inhibition of cell growth incubated for 48 hrs by MTT assay; type: functional, cell-based; conditions: HCT-116, 48 h
K562 = experiment: Cytotoxicity against human K562 cells assessed as inhibition of cell growth incubated for 48 hrs by MTT assay; type: functional, cell-based; conditions: K562, 48 h
SMMC-7721 [4] = experiment: Cytotoxicity against human SMMC-7721 cells assessed as inhibition of cell growth incubated for 48 hrs by MTT assay; type: functional, cell-based; conditions: SMMC-7721, 48 h
MCF7 [5] = experiment: Antiproliferative activity against human MCF7 cells assessed as inhibition of cell proliferation incubated for 48 hrs by MTT assay; type: functional, cell-based; conditions: MCF7, 48 h
SMMC-7721 [6] = experiment: Antiproliferative activity against human SMMC-7721 cells assessed as inhibition of cell proliferation incubated for 48 hrs by MTT assay; type: functional, cell-based; conditions: SMMC-7721, 48 h
HeLa = experiment: Antiproliferative activity against human HeLa cells assessed as inhibition of cell proliferation incubated for 48 hrs by MTT assay; type: functional, cell-based
Pseudomonas aeruginosa = experiment: Antibacterial activity against Pseudomonas aeruginosa assessed as inhibition of bacterial growth incubated for 24 hrs by two-fold serial dilution assay; type: functional
Escherichia coli = experiment: Antibacterial activity against Escherichia coli JM109 assessed as inhibition of bacterial growth incubated for 24 hrs by two-fold serial dilution assay; type: functional
Staphylococcus aureus [7] = experiment: Antibacterial activity against Staphylococcus aureus ATCC25923 assessed as inhibition of bacterial growth incubated for 24 hrs by two-fold serial dilution assay; type: functional
Staphylococcus aureus [8] = experiment: Antibacterial activity against methicillin-resistant Staphylococcus aureus N315 assessed as inhibition of bacterial growth incubated for 24 hrs by two-fold serial dilution assay; type: functional
Micrococcus luteus = experiment: Antibacterial activity against Micrococcus luteus assessed as inhibition of bacterial growth incubated for 24 hrs by two-fold serial dilution assay; type: functional
Bacillus subtilis = experiment: Antibacterial activity against Bacillus subtilis ATCC6633 assessed as inhibition of bacterial growth incubated for 24 hrs by two-fold serial dilution assay; type: functional
Salmonella typhi = experiment: Antibacterial activity against Salmonella enterica subsp. enterica serovar Typhi assessed as inhibition of bacterial growth incubated for 24 hrs by two-fold serial dilution assay; type: functional
Proteus = experiment: Antibacterial activity against Proteus ATCC13315 assessed as inhibition of bacterial growth incubated for 24 hrs by two-fold serial dilution assay; type: functional
Jurkat = experiment: Antiproliferative activity against human Jurkat cells assessed as inhibition of cell proliferation incubated for 72 hrs by MTT assay; type: functional, cell-based
Salmon testes DNA = experiment: Binding affinity to salmon Testis DNA assessed as equilibrium binding constant by steady-state fluorescence spectroscopic analysis; conditions: Salmo salar
Calf thymus DNA = experiment: Binding affinity to calf thymus DNA assessed as binding constant by fluorescence based EtBr-displacement based UV-Vis spectroscopic analysis; type: nucleic-acid assay; conditions: Bos taurus

NCCCNCCCCN1C(=O)c2cccc3cccc(c23)C1=O
1.15 10^4/M: Kb (Clupea harengus)

O=C1c2cccc3c2c(cc2[nH]c(-c4c[nH]c5ccccc45)nc23)C(=O)N1Nc1ccccc1
700 nM: IC50 (BGC-823) | IC50 (L02) | IC50 (MCF7 [1])

NCCN1C(=O)c2cccc3cccc(c23)C1=O
2440 nM: IC50 (HCT-15)

O=C1c2cccc3cccc(c23)C(=O)N1CCn1cc(-c2ccccc2)nn1
2440 nM: IC50 (HCT-15)

O=C1c2cccc3cccc(c23)C(=O)N1CCCN(CCCN(CCO)CCO)CCCN1C(=O)c2cccc3cccc(c23)C1=O
820 nM: IC50 (HCT-116 [2])

O=C1c2cccc3cccc(c23)C(=O)N1CCCN(CCCN(CCCl)CCCl)CCCN1C(=O)c2cccc3cccc(c23)C1=O
350 nM: IC50 (HCT-116 [2])

CCCCOC(=O)c1ccc2c3c(cccc13)C(=O)N(CCN(C)C)C2=O
> 50000 nM: IC50 (HepG2) | IC50 (HCT-116 [3]) | IC50 (K562) | IC50 (SMMC-7721 [4])

NCCCN1C(=O)c2cccc3cccc(c23)C1=O [NAPHTHALIMIDOPROPYLAMINE]
2440 nM: IC50 (HCT-15)

NCCCCNCCCCN1C(=O)c2cccc3cccc(c23)C1=O
1.15 10^4/M: Kb (Clupea harengus)

O=C1c2cccc3cc(-n4cc(-c5ccccc5)nn4)cc(c23)C(=O)N1CCO
300 nM: IC50 (MCF7 [5]) | IC50 (SMMC-7721 [6]) | IC50 (HeLa)

CCOC(=O)c1ccc2c3c(cccc13)C(=O)N(CCN(C)C)C2=O
13700 nM: IC50 (HepG2) | IC50 (HCT-116 [3]) | IC50 (K562) | IC50 (SMMC-7721 [4])

O=C1c2cccc3c(Sc4nc5ccccc5n4Cc4ccc(F)cc4F)ccc(c23)C(=O)N1CCCCn1cncn1
> 512 µg/mL: MIC (Pseudomonas aeruginosa) | MIC (Escherichia coli) | MIC (Staphylococcus aureus [7]) | MIC (Staphylococcus aureus [8]) | MIC (Micrococcus luteus) | MIC (Bacillus subtilis) | MIC (Salmonella typhi) | MIC (Proteus)

O=C1c2cccc3cccc(c23)C(=O)N1CCCC/N=C/c1ccccn1
5580 nM: IC50 (Jurkat)

O=C1c2cccc3cccc(c23)C(=O)N1CCCCCC/N=C/c1ccccn1
5580 nM: IC50 (Jurkat)

O=C1c2cccc3c(Sc4nc5ccccc5n4Cc4cccc(F)c4)ccc(c23)C(=O)N1CCCCn1cncn1
> 512 µg/mL: MIC (Pseudomonas aeruginosa) | MIC (Escherichia coli) | MIC (Staphylococcus aureus [7]) | MIC (Staphylococcus aureus [8]) | MIC (Micrococcus luteus) | MIC (Bacillus subtilis) | MIC (Salmonella typhi) | MIC (Proteus)

CCNN1C(=O)c2cccc3c2c(cc2[nH]c(-c4c[nH]c5ccccc45)nc23)C1=O
700 nM: IC50 (BGC-823) | IC50 (L02) | IC50 (MCF7 [1])

CN(C)c1ccc2c3c(cccc13)C(=O)N(CCc1cc[n+](C)cc1)C2=O
1.38 10^5/M: Kb (Salmon testes DNA)

CCCCCCCCNN1C(=O)c2cccc3c2c(cc2[nH]c(-c4c[nH]c5ccccc45)nc23)C1=O
700 nM: IC50 (BGC-823) | IC50 (L02) | IC50 (MCF7 [1])

O=C1c2cccc3cccc(c23)C(=O)N1CC[n+]1ccccc1
2 10^4/M: Kb (Salmon testes DNA)

O=C1c2cccc3cccc(c23)C(=O)N1CCCNCCCN(CCO)CCO
6960 nM: IC50 (HCT-116 [2])

O=C1c2cccc3cccc(c23)C(=O)N1CCCCNCc1ccccn1
5580 nM: IC50 (Jurkat)

O=C1c2cccc3c(Sc4nc5ccccc5n4Cc4ccc(Cl)cc4)ccc(c23)C(=O)N1CCCCn1cncn1
> 512 µg/mL: MIC (Pseudomonas aeruginosa) | MIC (Escherichia coli) | MIC (Staphylococcus aureus [7]) | MIC (Staphylococcus aureus [8]) | MIC (Micrococcus luteus) | MIC (Bacillus subtilis) | MIC (Salmonella typhi) | MIC (Proteus)

O=C1c2cccc3c(Sc4nc5ccccc5n4Cc4ccccc4Cl)ccc(c23)C(=O)N1CCCCn1cncn1
> 512 µg/mL: MIC (Pseudomonas aeruginosa) | MIC (Escherichia coli) | MIC (Staphylococcus aureus [7]) | MIC (Staphylococcus aureus [8]) | MIC (Micrococcus luteus) | MIC (Bacillus subtilis) | MIC (Salmonella typhi) | MIC (Proteus)

O=C1c2cccc3c([N+](=O)[O-])ccc(c23)C(=O)N1c1ccc(-c2cc[n+]3c(c2)-c2cccc[n+]2CC3)cc1
1.7 10^7/M: K (Calf thymus DNA)

O=C1c2cccc3c(Sc4nc5ccccc5n4Cc4ccc(F)cc4)ccc(c23)C(=O)N1CCCCn1cncn1
> 512 µg/mL: MIC (Pseudomonas aeruginosa) | MIC (Escherichia coli) | MIC (Staphylococcus aureus [7]) | MIC (Staphylococcus aureus [8]) | MIC (Micrococcus luteus) | MIC (Bacillus subtilis) | MIC (Salmonella typhi) | MIC (Proteus)

CCCCN1C(=O)c2cccc3cc(-n4ccnn4)cc(c23)C1=O
300 nM: IC50 (MCF7 [5]) | IC50 (SMMC-7721 [6]) | IC50 (HeLa)

CCN(CC)CCN1C(=O)c2cccc3cc(-n4cc(-c5ccccc5)nn4)cc(c23)C1=O
300 nM: IC50 (MCF7 [5]) | IC50 (SMMC-7721 [6]) | IC50 (HeLa)

COC(=O)c1ccc2c3c(cccc13)C(=O)N(CCN(C)C)C2=O
13700 nM: IC50 (HepG2) | IC50 (HCT-116 [3]) | IC50 (K562) | IC50 (SMMC-7721 [4])
